# Test results reported in publication PMC9529548 (Computational and Structural Biotechnology Journal, 2022).
# Test system: T1, E. coli transhydrogenase (PntA (α) and PntB (β))
# T1 construct: full-length wild-type holoenzyme from E. coli membranes, DDM-solubilised, Ni-NTA (tag not described) and SEC; dimer of two identical protomers (alpha2beta2)
# Assay: spectrophotometric reduction of APAD+ by NADPH, […] nm
# Format: biochemical, Escherichia coli
# Details: 100 uM APAD+, 100 uM NADPH, 25 mM HEPES pH 7.5, 50 mM KCl, asolectin, 0.1% DDM, 37 °C; reverse reaction
# T1 sequence (P0AB67 whole entry): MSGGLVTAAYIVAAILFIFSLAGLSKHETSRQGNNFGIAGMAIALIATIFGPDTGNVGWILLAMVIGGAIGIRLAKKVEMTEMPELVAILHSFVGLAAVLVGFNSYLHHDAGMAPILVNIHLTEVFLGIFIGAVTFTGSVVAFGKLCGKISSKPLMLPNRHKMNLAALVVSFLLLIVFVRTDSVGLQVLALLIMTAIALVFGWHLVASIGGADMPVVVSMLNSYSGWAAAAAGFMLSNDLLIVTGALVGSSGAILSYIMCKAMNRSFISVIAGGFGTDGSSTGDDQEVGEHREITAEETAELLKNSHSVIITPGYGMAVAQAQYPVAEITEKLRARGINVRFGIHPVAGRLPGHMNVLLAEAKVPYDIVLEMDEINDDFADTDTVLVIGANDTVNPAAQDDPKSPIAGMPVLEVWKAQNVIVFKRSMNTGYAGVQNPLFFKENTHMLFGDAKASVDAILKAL
# T1 sequence (P07001 whole entry, further chain): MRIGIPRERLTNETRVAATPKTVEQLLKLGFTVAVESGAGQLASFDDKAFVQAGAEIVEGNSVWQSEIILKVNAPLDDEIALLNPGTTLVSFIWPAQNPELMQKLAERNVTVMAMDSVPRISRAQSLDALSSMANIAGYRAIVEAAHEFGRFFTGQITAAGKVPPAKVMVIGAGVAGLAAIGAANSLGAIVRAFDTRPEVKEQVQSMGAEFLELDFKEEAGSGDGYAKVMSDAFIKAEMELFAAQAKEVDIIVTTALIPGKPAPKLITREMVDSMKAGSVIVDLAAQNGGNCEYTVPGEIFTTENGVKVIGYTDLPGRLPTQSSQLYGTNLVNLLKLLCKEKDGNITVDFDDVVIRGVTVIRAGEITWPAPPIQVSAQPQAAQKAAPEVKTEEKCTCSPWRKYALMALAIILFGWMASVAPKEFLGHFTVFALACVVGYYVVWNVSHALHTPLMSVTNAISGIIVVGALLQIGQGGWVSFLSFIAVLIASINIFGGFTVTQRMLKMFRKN
structure (smiles),measurement,value
CC(=O)c1ccc[n+]([C@@H]2O[C@H](COP(=O)(O)OP(=O)(O)OC[C@H]3O[C@@H](n4cnc5c(N)ncnc54)[C@H](O)[C@@H]3O)[C@@H](O)[C@H]2O)c1 [APAD^+],"spectrophotometric reduction of APAD+ by NADPH, 375 nm",reverse transhydrogenase activity of the protein in DDM was measured using the reduction of APAD^+
